Columns and labels:
[1] = system: miR-424 levels in T-cells and DCs; assay: CT26 tumor cells co-cultured with naïve T-cells and DCs, miR-424 level; format: cell-based, mouse; details: co-culture with CT26 tumor cells; EV production blocked
Experimental: miR-424 levels were analyzed across different samples, including tumor cells, immune cells, and EVs (FIG. 3A). To determine whether EVs can be up-taken by T-cells and DCs, CT26-WT cell line-derived EVs were stained with Dio dye and incubated with mouse naïve T-cells and DCs. Images taken using confocal microscopy confirmed the presence of Dio labeled EVs inside the T-cells and DCs (FIG. 3B). Next, CT26 tumor cells were co-cultured with naïve T-cells and DCs, which lead to a significant increase in miR-424 levels in both T-cells and DCs (FIG. 3C). Importantly, this increase in miR-424 could be neutralized by blocking the production of EVs in the co-culture system using GW4869 (FIG. 3C). To determine whether this tumor-derived EVs were being engulfed by the immune cells, CD63-GFP transfected CT26 tumor cells were injected into mice to establish a subcutaneous tumor model. […] Next, we sought to determine whether these effects could be eliminated by knocking out miR-424 in tumors. To this end, T-cells and DCs were isolated from the spleens of healthy mice, and of mice with wild-type tumors or miR-424 knockout (KO) tumors using flow cytometry sorting. miR-424 level was measured in the sorted T-cells and DCs by qPCR. […] Next, to study the impact of EV miR-424 expression on T-cell co-stimulation, the Jurkat cell and Raji cell conjugation assays were used. […]

[2] = system: IL-2 production; assay: Jurkat-Raji conjugation system co-cultured with human CRC derived organoids; format: cell-based; details: EVs secretion blocked in the co-culture system
Experimental: miR-424 levels were analyzed across different samples, including tumor cells, immune cells, and EVs (FIG. 3A). To determine whether EVs can be up-taken by T-cells and DCs, CT26-WT cell line-derived EVs were stained with Dio dye and incubated with mouse naïve T-cells and DCs. Images taken using confocal microscopy confirmed the presence of Dio labeled EVs inside the T-cells and DCs (FIG. 3B). Next, CT26 tumor cells were co-cultured with naïve T-cells and DCs, which lead to a significant increase in miR-424 levels in both T-cells and DCs (FIG. 3C). Importantly, this increase in miR-424 could be neutralized by blocking the production of EVs in the co-culture system using GW4869 (FIG. 3C). To determine whether this tumor-derived EVs were being engulfed by the immune cells, CD63-GFP transfected CT26 tumor cells were injected into mice to establish a subcutaneous tumor model. […] To this end, T-cells and DCs were isolated from the spleens of healthy mice, and of mice with wild-type tumors or miR-424 knockout (KO) tumors using flow cytometry sorting. miR-424 level was measured in the sorted T-cells and DCs by qPCR. […]
The Jurkat-Raji cells conjugation system was used for understanding the impacts of human tumor organoid-derived EVs on co-stimulation as well. […] Concentration of IL-2 was quantified in the co-culture system.

[3] = system: CT26 and MC38 tumors; assay: Established tumor model, 5-FU and anti-4-1BB schedules; details: monotherapy
[4] = 5-FU toxicity evaluation (body weight, diarrhea score); format: in vivo, mice; details: monotherapy
Experimental: FIGS. 24A-24D show the side effects of different treatments. Related to FIG. 16. FIGS. 24A-24B show mouse body weight, which was measured on day 12, 24, and 32 during treatment. […] FIGS. 24C-24D show the results of a diarrhea assessment, which was performed at the endpoint of mice follow-up to evaluate the side effects on mouse intestine.
Toxicity is a primary concern for cancer treatments, especially in combination therapy. We took this into account by evaluating the side effects of each treatment.
We recorded animal body weight and diarrhea scores after treatments. Mice were weighed on day 12, 24, and 32 after treatment. The diarrhea score was assessed at the endpoint of each treatment by using a 4-point scoring system: 0=normal stool; 1=slight diarrhea (soft formed stool without perianal staining of the coat); 2=moderate diarrhea (unformed stool with moderate perianal staining of the coat); and 3=severe diarrhea (watery stool with severe perianal staining of the coat) (Song et al., 2013).

[5] = system: CT26 tumors; assay: Mass cytometry immune profiling of treated CT26 tumors; format: in vivo, mice
Text: FIGS. 18A-18I show the tumor immunological response to 5-FU and anti-4-1BB treatments in CT26 tumors. […] PD-L1, Ki-67, CD80, and CD86 expression were quantified in whole tumor tissue. […] See also FIGS. 25-27.
FIGS. 27A-27H show the tumor immunological response to 5-FU and anti-PD-1 treatments in CT26 tumors. Related to FIG. 18.
Tumor samples were collected and digested using standard flow cytometry procedure. A total of 3 million single cells were used for each mass cytometry staining. In brief, the single cell pellets were first incubated with Cell-ID Cisplatin with a final concentration of 5 μM for 5 min at RT to identify dead cells. Cells were then washed and blocked by Fc-receptor blocking solution. Cell membrane staining was then performed with metal-conjugated antibodies for 30 min at RT. After staining, cells were fixed and permeabilized. The intracellular staining antibodies were then added and incubated for 45 min at RT. Finally, cells were labeled with 1 ml 1,000× diluted 125 μM Cell-ID intercalator-Ir to stain all cells in MaxPar Fix and Perm Buffer overnight at 4° C. EQ Four Element Calibration Beads with the reference EQ passport P13H2302 were added to each staining tube right before data acquisition by a CyTOF 2 mass cytometer. The mass cytometry data were then normalized and exported for gating on alive single cells, which were then imported to the Cytobank software. A t-SNE analysis was performed with default parameters (perplexity, 30; iterations, 1,000) on all cell types in tumor samples.

[6] = system: T cells; assay: T cell depletion in naïve mice; format: in vivo
Experimental: FIGS. 23A-23D show the T cell depleting effects of 5-FU and anti-CD3 treatment. Related to FIGS. 14 and 16-18.
We tested the effects of 5-FU treatment and 5-FU and anti-4-1BB combination treatment on T cell depletion in vivo. Intraperitoneal administration of anti-CD3 treatment (clone: 17A2, BioXcell, 5 mg/kg every 3 days) was given to induce T cell depletion in mice. One dose of 5-FU (150 mg/kg) or 5-FU (150 mg/kg) and anti-4-1BB (5 mg/kg) combination treatment was given intraperitoneally in naïve mice. Mice were sampled on days 2, 4, 7, and 9 after treatment for quantifying T cells in lymph nodes, spleen, bone marrow, and blood circulation.

Row | SMILES | increase in miR-424 levels in T-cells and DCs [1] | suppression of IL-2 production by organoids [2] | tumor growth and survival time [3] | side effects [4] | frequency of MDSCs ([5]; 5-FU monotherapy and combination treatment) | CD80 expression and MDSCs in tumor tissue ([5]; 5-FU treatment) | T-cell population in the tumor microenvironment ([5]; 5-FU treatment) | T cell depletion [6] | time to recovery of the T cell population ([6]; after 5-FU treatment)
1 | O=C(/C=C/c1ccc(/C=C/C(=O)Nc2ccc(C3=NCCN3)cc2)cc1)Nc1ccc(C2=NCCN2)cc1 [GW4869] | neutralized | neutralized |  |  |  |  |  |  | 
2 | O=c1[nH]cc(F)c(=O)[nH]1 [5-FU, 5-fluorouracil] |  |  | delayed tumor development | severe body weight loss and diarrhea | decreased | upregulated CD80 expression and depleted MDSCs | suppressed the T-cell population | depleted T cells in lymphatic organs, blood circulation, and bone marrow | around 9 days
